“Also recorded” adds a separate entry of the source. Like-named read-outs stand apart in the source and are kept apart here.
How the values were obtained:
[1] = Maximum tolerated dose (MTD); format: in vivo, female Sprague-Dawley rats; settings: rat, in vivo, iv, BIW, 2 wks
Text: Maximum tolerated dose (MTD). […] For Example, EC1456 has a MTD of at least 0.51 μmol/kg and EC0531 has a MTD of 0.33 μmol/kg, […] when administered by i.v., BIW, 2 wks in female Sprague-Dawley rats. Histopathologic changes were not observed with doses of EC1456 at or below the MTD.

KB tumors = test: KB tumor assay in nu/nu mice; settings: for CR (%) / Cures (%) / PR (%) / Toxicity Avg. Weight Loss / Toxicity Deaths (%): TIW, 2 weeks
Protocol: Inhibition of Tumor Growth in Mice. Four to seven week-old mice (Balb/c or nu/nu strains) were purchased from Harlan Sprague Dawley, Inc. (Indianapolis, Ind.). Normal rodent chow contains a high concentration of folic acid (6 mg/kg chow); accordingly, mice used were maintained on the folate-free diet (Harlan diet #TD00434) for 1 week before tumor implantation to achieve serum folate concentrations close to the range of normal human serum. For tumor cell inoculation, 1×10^6 M109 cells (Balb/c strain) or 1×10^6 KB cells (nu/nu strain) in 100 μL were injected in the subcutis of the dorsal medial area. Tumors were measured in two perpendicular directions every 2-3 days using a caliper, and their volumes were calculated as 0.5×L×W^2, where L=measurement of longest axis in mm and W=measurement of axis perpendicular to L in mm. […] Dosing solutions were prepared fresh each day in PBS and administered through the lateral tail vein of the mice.
General KB Tumor Assay. The anti-tumor activity of the compounds described herein, when administered intravenously (i.v.) to tumor-bearing animals, was evaluated in nu/nu mice bearing subcutaneous KB tumors. Approximately 8 days post tumor inoculation in the subcutis of the right axilla with 1×10^6 KB cells (average tumor volume at to=50-100 mm^3), in mice (5/group) were injected i.v. three times a week (TIW), for 3 weeks with […] of the drug delivery conjugate or with an equivalent dose volume of PBS (control), unless otherwise indicated. Tumor growth was measured using calipers at 2-day or 3-day intervals in each treatment group. Tumor volumes were calculated using the equation V=a×b^2/2, where “a” is the length of the tumor and “b” is the width expressed in millimeters.
Toxicity as Measured by Weight Loss. The percentage weight change of the mice was determined in mice (5 mice/group) on selected days post-tumor inoculation (PTI), and graphed.
In vivo activity against tumors.

[2] = tested on: folate receptor-positive KB cells; settings: for In vitro specificity (fold): difference in IC50 between competed and non-competed group
Protocol: Inhibition of Cellular DNA Synthesis. The compounds described herein were evaluated using an in vitro cytotoxicity assay that predicts the ability of the drug to inhibit the growth of folate receptor-positive KB cells. The compounds were comprised of folate linked to a respective chemotherapeutic drug, as prepared according to the protocols described herein. The KB cells were exposed for up to 7 h at 37° C. to the indicated concentrations of folate-drug conjugate in the absence or presence of at least a 100-fold excess of folic acid. The cells were then rinsed once with fresh culture medium and incubated in fresh culture medium for 72 hours at 37° C. Cell viability was assessed using a ^3H-thymidine incorporation assay.
In vitro test against the various cancer cell lines. Cells are heavily seeded in 24-well Falcon plates and allowed to form nearly confluent monolayers overnight. Thirty minutes prior to the addition of the test compound, spent medium is aspirated from all wells and replaced with fresh folate-deficient RPMI medium (FFRPMI). A subset of wells are designated to receive media containing 100 μM folic acid. The cells in the designated wells are used to determine the targeting specificity. […] Following one rinse with 1 mL of fresh FFRPMI containing 10% heat-inactivated fetal calf serum, each well receives 1 mL of medium containing increasing concentrations of test compound (4 wells per sample) in the presence or absence of 100 μM free folic acid as indicated. Treated cells are pulsed for 2 h at 37° C., rinsed 4 times with 0.5 mL of media, and then chased in 1 mL of fresh medium up to 70 h. Spent medium is aspirated from all wells and replaced with fresh medium containing 5 μCi/mL ^3H-thymidine. Following a further 2 h 37° C. incubation, cells are washed 3 times with 0.5 mL of PBS and then treated with 0.5 mL of ice-cold 5% trichloroacetic acid per well. After 15 min, the trichloroacetic acid is aspirated and the cell material solubilized by the addition of 0.5 mL of 0.25 N sodium hydroxide for 15 min. A 450 μL aliquot of each solubilized sample is transferred to a scintillation vial containing 3 mL of Ecolume scintillation cocktail and then counted in a liquid scintillation counter. Final tabulated results are expressed as the percentage of ^3H-thymidine incorporation relative to untreated controls.
Folate receptor expressing cells. […] EC1456 was evaluated from 0.1-100 nM.

folate receptors (FRs) = molecular target: T1, folate receptors (FRs) (Homo sapiens, UniProt P15328); test: Relative affinity assay (3H-folic acid displacement on KB cells); format: binding; settings: compared to folic acid (relative affinity=1), 10% serum/FDRPMI
T1 construct: FR-positive KB cells were heavily seeded into 24-well cell culture plates; endogenous in cells; host or cells: KB cells (human cervical carcinoma)
Protocol: Relative Affinity Assay. The affinity for folate receptors (FRs) relative to folate was determined according to a previously described method (Westerhof, G. R., J. H. Schornagel, et al. (1995) Mol. Pharm. 48: 459-471) with slight modification. Briefly, FR-positive KB cells were heavily seeded into 24-well cell culture plates and allowed to adhere to the plastic for 18 h. Spent incubation media was replaced in designated wells with folate-free RPMI (FFRPMI) supplemented with 100 nM ^3H-folic acid in the absence and presence of increasing concentrations of test article or folic acid. Cells were incubated for 60 min at 37° C. and then rinsed 3 times with PBS, pH 7.4. Five hundred microliters of 1% SDS in PBS, pH 7.4, were added per well. Cell lysates were then collected and added to individual vials containing 5 mL of scintillation cocktail, and then counted for radioactivity. Negative control tubes contained only the ^3H-folic acid in FFRPMI (no competitor). Positive control tubes contained a final concentration of 1 mM folic acid, and CPMs measured in these samples (representing non-specific binding of label) were subtracted from all samples.

cells in culture = test: Cytotoxicity to cells in culture; format: cell-based; settings: read-out: typical IC50, cells in culture
KB-CR tumors = test: Cisplatin-resistant KB-CR tumor model; format: in vivo; settings: 3 mg/kg, twice per week (T/Th), 2 weeks
[3] = read-out: 50% competition, competed group (excess folic acid)
[4] = 1.0 μmol/kg (2 doses), only 2 doses due to toxicity

T1 sequence (P15328 25-234): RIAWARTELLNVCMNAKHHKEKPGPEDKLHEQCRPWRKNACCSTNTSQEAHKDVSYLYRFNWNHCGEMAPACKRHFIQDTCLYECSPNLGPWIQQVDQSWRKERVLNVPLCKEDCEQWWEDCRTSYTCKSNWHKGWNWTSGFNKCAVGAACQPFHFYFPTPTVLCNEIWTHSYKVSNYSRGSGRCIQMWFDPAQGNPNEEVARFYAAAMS

SMILES | In vivo activity (KB tumors) | In vitro specificity (fold) [2] | IC50 [2, 3] | IC50 ([2]; read-out: In vitro IC50) | Relative Affinity (folate receptors (FRs)) | also measured
N=c1[nH]c(N)nc2ncc(CNc3ccc(C(=O)N[C@@H](CCC(=O)NNC(=O)OCCSSC[C@H](NC(=O)[C@H](CCC(=O)NC[C@H](O)[C@@H](O)[C@H](O)[C@H](O)CO)NC(=O)[C@H](CCC(=O)O)NC(=O)[C@H](CCC(=O)NC[C@H](O)[C@@H](O)[C@H](O)[C@H](O)CO)NC(=O)[C@H](CCC(=O)O)NC(=O)[C@H](CCC(=O)NC[C@H](O)[C@@H](O)[C@H](O)[C@H](O)CO)NC(=O)CC[C@H](NC(=O)c4ccc(NCc5cnc6nc(N)[nH]c(=O)c6n5)cc4)C(=O)O)C(=O)O)C(=O)O)cc3)nc12 [EC0531, reference compound] | Complete | 237 fold | 355 nM | 1.5 nM | – | MTD at 2 weeks [1]: 0.33 µmol/kg
CCCC(=O)OCN(C(=O)[C@@H](NC(=O)[C@H]1CCCCN1C)C(C)CC)[C@H](C[C@@H](OC(C)=O)c1nc(C(=O)N[C@@H](Cc2ccc(O)cc2)C[C@H](C)C(=O)NNC(=O)OCCSSC[C@@H](NC(=O)[C@@H](CC(=O)O)NC(=O)[C@@H](CC(=O)O)NC(=O)[C@@H](CCCNC(=N)N)NC(=O)[C@@H](CC(=O)O)NC(=O)CC[C@@H](NC(=O)c2ccc(NCc3cnc4nc(N)[nH]c(=O)c4n3)cc2)C(=O)O)C(=O)O)cs1)C(C)C (some centres unmarked) [EC1299] | Complete | 778 fold | 700 nM | 0.9 nM | 0.29 | –
CCCC(=O)OCN(C(=O)[C@@H](NC(=O)[C@H]1CCCCN1C)C(C)CC)[C@H](C[C@@H](OC(C)=O)c1nc(C(=O)N[C@@H](Cc2ccc(O)cc2)C[C@H](C)C(=O)NNC(=O)OCCSSC(C)(C)[C@@H](NC(=O)[C@@H](CC(=O)O)NC(=O)[C@@H](CC(=O)O)NC(=O)[C@@H](CCCNC(=N)N)NC(=O)[C@@H](CC(=O)O)NC(=O)CC[C@@H](NC(=O)c2ccc(NCc3cnc4nc(N)[nH]c(=O)c4n3)cc2)C(=O)O)C(=O)O)cs1)C(C)C (some centres unmarked) [EC1393] | – | 300 fold | 600 nM | 2.2 nM | 0.25 | –
CCCC(=O)OCN(C(=O)[C@@H](NC(=O)[C@H]1CCCCN1C)C(C)CC)[C@H](C[C@@H](OC(C)=O)c1nc(C(=O)N[C@@H](Cc2ccc(O)cc2)C[C@H](C)C(=O)NNC(=O)OCCSSC[C@@H](NC(=O)[C@H](CC(=O)O)NC(=O)[C@H](CC(=O)O)NC(=O)[C@H](CCCNC(=N)N)NC(=O)[C@H](CC(=O)O)NC(=O)CC[C@H](NC(=O)c2ccc(NCc3cnc4nc(N)[nH]c(=O)c4n3)cc2)C(=O)O)C(=O)O)cs1)C(C)C (some centres unmarked) [EC1548] | Complete | 78 fold | 350 nM | 4.4 nM | 0.23 | –
CCCC(=O)OCN(C(=O)[C@@H](NC(=O)[C@H]1CCCCN1C)C(C)CC)C(C[C@@H](OC(C)=O)c1nc(C(=O)N[C@@H](Cc2ccc(O)cc2)C[C@H](C)C(=O)NNC(=O)OCCSSC[C@@H](NC(=O)[C@@H](CC(=O)O)NC(=O)[C@H](CC(=O)O)NC(=O)[C@H](CCCNC(=N)N)NC(=O)[C@H](CC(=O)O)NC(=O)CC[C@H](NC(=O)c2ccc(NCc3cnc4nc(N)[nH]c(=O)c4n3)cc2)C(=O)O)C(=O)O)cs1)C(C)C (some centres unmarked) [EC1549] | Complete | 78 fold | 350 nM | 4.5 nM | 0.90 | –
CCCCOCN(C(=O)[C@@H](NC(=O)[C@H]1CCCCN1C)C(C)CC)[C@H](C[C@@H](OC(C)=O)c1nc(C(=O)N[C@@H](Cc2ccc(O)cc2)C[C@H](C)C(=O)NNC(=O)OCCSSC[C@@H](NC(=O)[C@H](CCC(=O)NC[C@H](O)[C@@H](O)[C@H](O)[C@H](O)CO)NC(=O)[C@@H](CCC(=O)O)NC(=O)[C@H](CCC(=O)NC[C@H](O)[C@@H](O)[C@H](O)[C@H](O)CO)NC(=O)[C@@H](CCC(=O)O)NC(=O)[C@H](CCC(=O)NC[C@H](O)[C@@H](O)[C@H](O)[C@H](O)CO)NC(=O)CC[C@@H](NC(=O)c2ccc(NCc3cnc4nc(N)[nH]c(=O)c4n3)cc2)C(=O)O)C(=O)O)cs1)C(C)C (some centres unmarked) [EC1663] | – | – | – | – | – | whole animal toxicity (KB tumors; 0.5 μmol/kg TIW, 2 wk, compared to PBS control): did not exhibit significant host animal toxicity; also recorded: does not show any evidence of whole animal toxicity; partial responses (test animals) (KB tumors; intravenously 0.5 μmol/kg TIW, 2 wk): 4/4
CCCC(=O)OCN(C(=O)[C@@H](NC(=O)[C@H]1CCCCN1C)C(C)CC)[C@H](C[C@@H](OC(C)=O)c1nc(C(=O)N[C@@H](Cc2ccc(O)cc2)C[C@H](C)C(=O)NN)cs1)C(C)C (some centres unmarked) [TubBH, tubulysin B hydrazide] | – | – | – | – | – | CR (%) (KB tumors; 0.5 μmol/kg): 0%; Cures (%) (KB tumors; 0.5 μmol/kg): 0%; PR (%) (KB tumors; 0.5 μmol/kg): 0%; Toxicity Avg. Weight Loss (KB tumors; 0.5 μmol/kg): <5.5%; Toxicity Deaths (%) (KB tumors; 0.5 μmol/kg): 0%; CR (%) (KB tumors; 0.75 μmol/kg): 0%; Cures (%) (KB tumors; 0.75 μmol/kg): 0%; PR (%) (KB tumors; 0.75 μmol/kg): 0%; Toxicity Avg. Weight Loss (KB tumors; 0.75 μmol/kg): >10%; Toxicity Deaths (%) (KB tumors; 0.75 μmol/kg): 20%; CR (%) (KB tumors; [4]): 0%; Cures (%) (KB tumors; [4]): 0%; PR (%) (KB tumors; [4]): 0%; Toxicity Avg. Weight Loss (KB tumors; [4]): >15%; Toxicity Deaths (%) (KB tumors; [4]): 20%; toxicity in relation to anti-tumor effect in mice (KB tumors; mouse, in vivo): dose-limiting toxicities in mice at levels that did not produce measurable anti-tumor effect; IC50 (cells in culture): ~1 nM
N.N.[Cl][Pt][Cl] [cisplatin, reference compound] | – | – | – | – | – | partial responses (PRs) (KB-CR tumors): no PRs
